From paper PMC4894406, “Results of an abbreviated phase-II study with the Akt Inhibitor MK-2206 in Patients with Advanced Biliary Cancer” (Scientific Reports, 2015)
Where “and” joins values, the source holds several entries; their conditions need not be identical. Identical values can stand only once. Like-named read-outs stand apart in the source and are kept apart here.

Columns and labels:
CYP3A4 = conditions: cited from earlier work
human Akt (Akt-1) = conditions: cited from earlier work
[1] = Plasma pharmacokinetics in biliary cancer patients (LC-MS/MS, non-compartmental); format: in vivo, human; conditions: for AUC(0-t): read-out: AUC0–96; for Vd/F: read-out: Vz/F; for k el: read-out: λz (converted)
Description: Plasma samples were collected from all patients at Week 1 of Cycle 1 immediately prior to dose administration, and at 30 min, 1, 2, 3, 4, 6, 8, 24, 48, and 96 hours after dose administration. The 24, 48 and 96-hour samples were collected on the mornings of days 2, 3 and 5 within 4 hours of the target time (e.g. 24 ± 4, 48 ± 4, and 96 ± 4 hours). Plasma samples were also collected immediately prior to the oral intake of MK-2206 tablet(s) on days 8, 15 and 29 (i.e. Cycle 2, Day 1) so that trough pre-dose levels of MK-2206 could be determined in the following studies. The plasma levels of MK-2206 were evaluated using quantitative liquid chromatography/tandem mass spectrometry (LC-MS/MS) at Merck & Co. Non-compartmental PK parameters were determined for MK-2206 using Phoenix WinNonlin (v6.3, Pharsight, Mountain View, CA).

[2] = OSU Trial, 7 subjects (subject 1004 excluded), BSA-adjusted
[3] = OSU Trial, 7 subjects (subject 1004 excluded), first dose 200 mg
[4] = human, plasma, po, 200 mg, subject 1001, first dose 200 mg oral
[5] = human, plasma, po, 200 mg, subject 1002, first dose 200 mg oral
[6] = human, plasma, po, 200 mg, subject 1003, first dose 200 mg oral
[7] = human, plasma, po, 200 mg, subject 1004, first dose 200 mg oral
[8] = human, plasma, po, 200 mg, subject 1005, first dose 200 mg oral
[9] = human, plasma, po, 200 mg, subject 1007, first dose 200 mg oral
[10] = human, plasma, po, 200 mg, subject 2006, first dose 200 mg oral
[11] = human, plasma, po, 200 mg, subject 2008, first dose 200 mg oral

NC1(c2ccc(-c3nc4ccn5c(=O)[nH]nc5c4cc3-c3ccccc3)cc2)CCC1 [MK-2206]
metabolism in human microsomes (CYP3A4): converted to oxidative metabolites in human microsomes via CYP3A4 | IC50 (human Akt (Akt-1)): 8 nM | CL/F/m^2 (BSA-adjusted CL/F) [1, 2]: 16.5 +/− 7.2 L/hr/m^2 and 16.5±7.2 L/hr/m^2 | Vz/F/m^2 [1, 2]: 1521±931 L/m^2 | Cmax (average) [1, 3]: 114 ng/mL | Tmax (average) [1, 3]: 6.0 ± 1.6 h | concentration at 48 h ([1]; human, plasma, oral, 200 mg, 6 of 8 patients, read-out: 48-hr plasma concentration): > 22.7 ng/mL and > 56.8 nM | half-life ([1]; human, plasma, oral, 200 mg, OSU Trial, 7 subjects (subject 1004 excluded), first dose 200 mg, read-out: Half life (average) (converted)): 63.5 ± 21.2 h | concentration at 8 day ([1]; human, plasma, oral, 200 mg, day 8, 200 mg weekly, read-out: trough pre-dose average plasma concentration): 14.7 ng/mL | concentration at 15 day ([1]; human, plasma, oral, 200 mg, day 15, 200 mg weekly, read-out: trough pre-dose average plasma concentration): 14.4 ng/mL | concentration at 48 h ([1]; human, plasma, oral, 200 mg, one of the other two patients, read-out: Plasma concentration measured at 48 hours): 18.5 ng/mL | concentration at 48 h ([1]; human, plasma, oral, 200 mg, subject 1004, read-out: Plasma concentration measured at 48 hours): 5.06 ng/mL | Tmax ([1]; human, plasma, po, 200 mg, eight patients, first dose 200 mg oral, read-out: Tmax, range): 4 to 8 h | half-life ([1]; human, plasma, po, 200 mg, eight patients, first dose 200 mg oral, read-out: median terminal elimination half-life (converted)): 58 h | Tmax ([1]; human, plasma, po, 200 mg, eight patients, first dose 200 mg oral, read-out: median time to peak observed plasma concentrations (Tmax)): 6 h | half-life ([1]; human, plasma, po, 200 mg, eight patients, first dose 200 mg oral, read-out: terminal elimination half-life, range): 34 to 88 h | Cmax [1, 4]: 106 ng/mL | AUC(0-t) [1, 4]: 3320 ng·h/mL | half-life ([1]; human, plasma, po, 200 mg, subject 1001, first dose 200 mg oral, read-out: Half-life (converted)): 53.3 h | Tmax ([1]; human, plasma, po, 200 mg, subject 1001, first dose 200 mg oral, read-out: Tmax): 4 h | Vd/F [1, 4]: 3270 L | k el [1, 4]: 3.61e-06 s⁻¹ | Cmax [1, 5]: 111 ng/mL | AUC(0-t) [1, 5]: 6850 ng·h/mL | half-life ([1]; human, plasma, po, 200 mg, subject 1002, first dose 200 mg oral, read-out: Half-life (converted)): 80.4 h | Tmax ([1]; human, plasma, po, 200 mg, subject 1002, first dose 200 mg oral, read-out: Tmax): 6 h | Vd/F [1, 5]: 1870 L | k el [1, 5]: 2.5e-06 s⁻¹ | Cmax [1, 6]: 176 ng/mL | AUC(0-t) [1, 6]: 8450 ng·h/mL | half-life ([1]; human, plasma, po, 200 mg, subject 1003, first dose 200 mg oral, read-out: Half-life (converted)): 33.8 h | Tmax ([1]; human, plasma, po, 200 mg, subject 1003, first dose 200 mg oral, read-out: Tmax): 6 h | Vd/F [1, 6]: 989 L | k el [1, 6]: 5.83e-06 s⁻¹ | Cmax [1, 7]: 11.1 ng/mL | AUC(0-t) [1, 7]: 531 ng·h/mL | half-life ([1]; human, plasma, po, 200 mg, subject 1004, first dose 200 mg oral, read-out: Half-life (converted)): 62.5 h | Tmax ([1]; human, plasma, po, 200 mg, subject 1004, first dose 200 mg oral, read-out: Tmax): 8 h | Vd/F [1, 7]: 22200 L | k el [1, 7]: 3.06e-06 s⁻¹ | Cmax [1, 8]: 108 ng/mL | AUC(0-t) [1, 8]: 6020 ng·h/mL | half-life ([1]; human, plasma, po, 200 mg, subject 1005, first dose 200 mg oral, read-out: Half-life (converted)): 86.9 h | Tmax ([1]; human, plasma, po, 200 mg, subject 1005, first dose 200 mg oral, read-out: Tmax): 8 h | Vd/F [1, 8]: 2210 L | k el [1, 8]: 2.22e-06 s⁻¹ | Cmax [1, 9]: 90.1 ng/mL | AUC(0-t) [1, 9]: 3730 ng·h/mL | half-life ([1]; human, plasma, po, 200 mg, subject 1007, first dose 200 mg oral, read-out: Half-life (converted)): 50.2 h | Tmax ([1]; human, plasma, po, 200 mg, subject 1007, first dose 200 mg oral, read-out: Tmax): 6 h | Vd/F [1, 9]: 2880 L | k el [1, 9]: 3.89e-06 s⁻¹ | Cmax [1, 10]: 144 ng/mL | AUC(0-t) [1, 10]: 5850 ng·h/mL | half-life ([1]; human, plasma, po, 200 mg, subject 2006, first dose 200 mg oral, read-out: Half-life (converted)): 52.4 h | Tmax ([1]; human, plasma, po, 200 mg, subject 2006, first dose 200 mg oral, read-out: Tmax): 4 h | Vd/F [1, 10]: 1870 L | k el [1, 10]: 3.61e-06 s⁻¹ | Cmax [1, 11]: 44.7 ng/mL | AUC(0-t) [1, 11]: 2060 ng·h/mL | half-life ([1]; human, plasma, po, 200 mg, subject 2008, first dose 200 mg oral, read-out: Half-life (converted)): 87.5 h | Tmax ([1]; human, plasma, po, 200 mg, subject 2008, first dose 200 mg oral, read-out: Tmax): 8 h | Vd/F [1, 11]: 6560 L | k el [1, 11]: 2.22e-06 s⁻¹ | CL/F ([1]; subject 1001, first dose 200 mg oral): 42.5 L/h | CL/F ([1]; subject 1002, first dose 200 mg oral): 16.1 L/h | CL/F ([1]; subject 1003, first dose 200 mg oral): 20.3 L/h | CL/F ([1]; subject 1004, first dose 200 mg oral): 245 L/h | Cmax and AUC of subject 1004 compared to others ([1]; subject 1004 relative to the other seven subjects): 6% to 25 | CL/F ([1]; subject 1005, first dose 200 mg oral): 17.6 L/h | CL/F ([1]; subject 1007, first dose 200 mg oral): 39.8 L/h | CL/F ([1]; subject 2006, first dose 200 mg oral): 24.8 L/h | CL/F ([1]; subject 2008, first dose 200 mg oral): 52.0 L/h | accumulation with the current regimen ([1]; trough levels days 8 and 15, 200 mg weekly): no significant accumulation
